Measured values from publication PMC4491109, “Synthesis and anticonvulsant activity of new N-phenyl-2-(4-phenylpiperazin-1-yl)acetamide derivatives” (Medicinal Chemistry Research, 2015).
Like-named read-outs stand apart in the source and are kept apart here.

Legend:
Type in all cases: in vivo
[1] = test system: maximal electroshock (MES) seizures; assay: Maximal electroshock (MES) test, i.p. administration in mice; details: Mus musculus, ip, doses of 30, 100 or 300 mg/kg
Procedure: (§1) Considering the aforementioned facts, the profile of anticonvulsant activity of final compounds 3–24 was established in the MES and scPTZ tests, after intraperitoneal (i.p.) injection in mice at doses of 30, 100 and 300 mg/kg. An observation was carried out at two different time intervals—0.5 and 4 h. Furthermore, in addition to the primary anticonvulsant screening, the acute neurological toxicity (NT) was determined in mice by the rotarod test.
(§2) Compounds 3–24 were pharmacologically preevaluated within the Antiepileptic Drug Development (ADD) Program in Epilepsy Branch, Neurological Disorders Program, National Institute of the Neurological and Communicative Disorders and Stroke (NIH/NINDS), Rockville, MD, USA, by using procedures described elsewhere (Krall et al., [1978]; Kupferberg, [1989]).
(§3) Phase I of the in vivo studies involved three tests: MES, scPTZ and rotarod test for NT. Male albino mice (CF#1 strain, weighing 18–25 g) and male albino rats (Sprague–Dawley) were used as experimental animals. The animals were housed in metabolic cages and allowed free access to food and water. The compounds were injected intraperitoneally to mice as a suspension in 0.5 % methylcellulose/water mixture at a dose level 30, 100 or 300 mg/kg with anticonvulsant activity and neurotoxicity assessment at 0.5 and 4 h after administration. Promising derivatives from phase I underwent phase VIa in which they were administrated orally into rats at a fixed dose of 30 mg/kg for both MES and the rotarod toxicity determination at five pretreatment times: 0.25, 0.5, 1, 2, 4 h. Groups of eight mice or four rats are employed.
(§4) In the MES screen, an electrical stimulus of 0.2 s in duration (50 mA in mice and 150 mA in rats) is delivered via corneal electrodes primed with an electrolyte solution containing an anesthetic agent. The endpoint is the tonic extension of the hind limbs. In the control groups, the procedures cause immediate hind limb tonic extension. Mice not displaying hind limb tonic extension are considered to be protected from seizures.

[2] = test system: pentylenetetrazole-induced seizures; assay: Subcutaneous pentylenetetrazole (scPTZ) test, i.p. administration in mice; details: Mus musculus, ip, doses of 30, 100 or 300 mg/kg
Procedure: as §1, §2, §3
The scPTZ test utilizes a dose of pentylenetetrazole (85 mg/kg in mice) that produces clonic seizures lasting for a period of at least 5 s in 97 % (CD97) of animals tested. PTZ is administered 0.5 and 4 h after injections of tested compounds, and observation is carried out for 30 min. In the control groups, the first episode of clonic convulsions is observed between 6 and 15 min of observation. The absence of clonic convulsions in the observed time period of […] is interpreted as the compound’s ability to protect against PTZ-induced seizures.

[3] = test system: 6-Hz psychomotor seizures; assay: Psychomotor seizure test (6-Hz), i.p. in mice; details: 100 mg/kg; for 6-Hz, number of mice protected/number of mice tested, 0.25 h / 6-Hz, number of mice protected/number of mice tested, 0.5 h / 6-Hz, number of mice protected/number of mice tested, 1 h / 6-Hz, number of mice protected/number of mice tested, 2 h / 6-Hz, number of mice protected/number of mice tested, 4 h: current 32 mA
Text: In the next step of pharmacological investigations, four compounds 12, 19, 20 and 24 were chosen for the evaluation of anticonvulsant activity in the psychomotor 6-Hz test (Table 4). The selection was made randomly as a part of the search of molecules providing anti-6-Hz protection among chemically diversified compounds pursued in the NIH/NINDS. It should be noticed that 6-Hz screen has been validated as a model of therapy-resistant epilepsy (Barton et al., [2001]).
The 6-Hz model is an alternative electroshock paradigm that uses low-frequency (6 Hz), long-duration (3 s) electrical stimulation. Corneal stimulation (0.2 ms duration monopolar rectangular pulses at 6-Hz for 3 s) was delivered by a constant-current device. During the stimulation, mice were manually restrained and released into the observation cage immediately after the current application. The seizures manifest in “stunned” posture associated with rearing, forelimb, automatic movements and clonus, twitching the vibrissae and Straub–tail. The duration of the seizure activity ranges from 60 to 120 s in untreated animals. At the end of the seizure, animals resume their normal exploratory behavior. The experimental end point is protection against the seizure. The animal is considered to be protected if it resumes its normal exploratory behavior within 10 s from the stimulation (Brown et al., [1953]).

mice (rotarod test) = assay: Neurotoxicity screening (NT), rotarod test, i.p. administration in mice; details: for dose showing neurotoxicity in the rotarod test (NT): ip; for response comment (adverse sign observed): mice, i.p., 300 mg/kg
Procedure: as §1, §3
The neurological toxicity test (NT) induced by a compound was detected in mice or rats using standardized rotarod test (Dunham and Miya, [1957]). Untreated control mice or rats, when placed on the rod, can maintained their equilibrium for a prolonged time period.

[4] = test system: maximal electroshock (MES) seizures; assay: MES test after oral administration in rats (screen and quantification); details: p.o., 30 mg/kg
Procedure: This screen discloses the time of onset, the approximate time of peak effect (TPE) and the duration of anticonvulsant activity or neurotoxicity.
The quantitative evaluation of the MES median effective dose (ED50) and toxic dose (TD50) was performed at previously estimated TPE—2 h.
as §3
as §4, with “In the control groups, the procedures cause immediate hind limb tonic extension.” left out

[5] = 0.5 h, read-out: MES, minimum dose effective in half or more animals tested, 0.5 h
[6] = 4 h, read-out: MES, minimum dose effective in half or more animals tested, 4 h
[7] = 0.5 h, read-out: scPTZ, minimum dose effective in half or more animals tested, 0.5 h
[8] = 4 h, read-out: scPTZ, minimum dose effective in half or more animals tested, 4 h

Structure (SMILES): CN1CCN(CC(=O)Nc2cccc(Cl)c2)CC1.Cl.Cl [Compound 12, N-(3-chlorophenyl)-2-(4-methylpiperazin-1-yl)acetamide dihydrochloride]
- minimal effective dose [1, 5]: 100 mg/kg
- minimal effective dose [1, 6]: > 300 mg/kg
- minimal effective dose [2, 7]: > 300 mg/kg
- minimal effective dose [2, 8]: > 300 mg/kg
- 6-Hz, % of animals protected, 0.25 h [3]: 75%
- 6-Hz, % of animals protected, 0.5 h [3]: 75%
- 6-Hz, number of mice protected/number of mice tested, 0.25 h [3]: 3/4
- 6-Hz, number of mice protected/number of mice tested, 0.5 h [3]: 3/4
- 6-Hz, number of mice protected/number of mice tested, 1 h ([3]; 1 h): 0/4
- 6-Hz, number of mice protected/number of mice tested, 2 h [3]: 0/4
- 6-Hz, number of mice protected/number of mice tested, 4 h ([3]; 4 h): 0/4

Structure (SMILES): Cl.O=C(CN1CCN(c2ccc(F)cc2)CC1)Nc1cccc(C(F)(F)F)c1 [Compound 19, 2-[4-(4-Fluorophenyl)piperazin-1-yl]-N-[3-(trifluoromethyl)phenyl]acetamide monohydrochloride]
- minimal effective dose [1, 5]: 300 mg/kg
- minimal effective dose [1, 6]: 100 mg/kg
- minimal effective dose [2, 7]: > 300 mg/kg
- minimal effective dose [2, 8]: > 300 mg/kg
- NT (rotarod), minimum dose neurotoxic in half or more animals tested, 0.5 h (mice (rotarod test); male, CF#1, mouse, in vivo): 300 mg/kg
- dose showing neurotoxicity in the rotarod test (NT) (mice (rotarod test); male, CF#1, mouse, in vivo): 300 mg/kg
- 6-Hz, % of animals protected, 4 h ([3]; 4 h): 25%
- 6-Hz, number of mice protected/number of mice tested, 0.25 h [3]: 0/4
- 6-Hz, number of mice protected/number of mice tested, 0.5 h [3]: 0/4
- 6-Hz, number of mice protected/number of mice tested, 1 h ([3]; 1 h): 0/4
- 6-Hz, number of mice protected/number of mice tested, 2 h [3]: 0/4
- 6-Hz, number of mice protected/number of mice tested, 4 h ([3]; 4 h): 1/4

Structure (SMILES): Cl.O=C(CN1CCOCC1)Nc1cccc(Cl)c1 [Compound 13, N-(3-chlorophenyl)-2-morpholino-acetamide monohydrochloride]
- minimal effective dose [1, 5]: 100 mg/kg
- minimal effective dose [1, 6]: 300 mg/kg
- minimal effective dose [2, 7]: > 300 mg/kg
- minimal effective dose [2, 8]: > 300 mg/kg
- NT (rotarod), minimum dose neurotoxic in half or more animals tested, 0.5 h (mice (rotarod test); male, CF#1, mouse, in vivo): 300 mg/kg
- dose showing neurotoxicity in the rotarod test (NT) (mice (rotarod test); male, CF#1, mouse, in vivo): 300 mg/kg
- MES, number of rats protected/number of rats tested, 0.25 h [4]: 0/4
- MES, number of rats protected/number of rats tested, 0.5 h [4]: 1/4
- MES, number of rats protected/number of rats tested, 1 h [4]: 0/4
- MES, number of rats protected/number of rats tested, 2 h [4]: 0/4
- MES, number of rats protected/number of rats tested, 4 h [4]: 0/4

Structure (SMILES): Cl.O=C(CN1CCOCC1)Nc1cccc(C(F)(F)F)c1 [Compound 24, 2-Morpholino-N-[3-(trifluoromethyl)phenyl]acetamide monohydrochloride]
- minimal effective dose [1, 5]: 100 mg/kg
- minimal effective dose [1, 6]: > 300 mg/kg
- minimal effective dose [2, 7]: > 300 mg/kg
- minimal effective dose [2, 8]: > 300 mg/kg
- NT (rotarod), minimum dose neurotoxic in half or more animals tested, 0.5 h (mice (rotarod test); male, CF#1, mouse, in vivo): 100 mg/kg
- dose showing neurotoxicity in the rotarod test (NT) (mice (rotarod test); male, CF#1, mouse, in vivo): 100 mg/kg
- 6-Hz, % of animals protected, 0.25 h [3]: 100%
- 6-Hz, % of animals protected, 0.5 h [3]: 50%
- 6-Hz, % of animals protected, 1 h ([3]; 1 h): 75%
- 6-Hz, number of mice protected/number of mice tested, 0.25 h [3]: 4/4
- 6-Hz, number of mice protected/number of mice tested, 0.5 h [3]: 2/4
- 6-Hz, number of mice protected/number of mice tested, 1 h ([3]; 1 h): 3/4
- 6-Hz, number of mice protected/number of mice tested, 2 h [3]: 0/4
- 6-Hz, number of mice protected/number of mice tested, 4 h ([3]; 4 h): 0/4

Structure (SMILES): Cl.Cl.O=C(CN1CCN(CCO)CC1)Nc1cccc(C(F)(F)F)c1 [Compound 23, 2-[4-(2-Hydroxyethyl)piperazin-1-yl]-N-[3-(trifluoromethyl)phenyl]acetamide dihydrochloride]
- minimal effective dose [1, 5]: 300 mg/kg
- minimal effective dose [1, 6]: 300 mg/kg
- minimal effective dose [2, 7]: > 300 mg/kg
- minimal effective dose [2, 8]: > 300 mg/kg
- NT (rotarod), minimum dose neurotoxic in half or more animals tested, 0.5 h (mice (rotarod test); male, CF#1, mouse, in vivo): 300 mg/kg

Structure (SMILES): O=C(CN1CCN(Cc2ccccc2)CC1)Nc1cccc(C(F)(F)F)c1 [Compound 22, 2-(4-Benzylpiperazin-1-yl)-N-[3-(trifluoromethyl)phenyl]acetamide]
- minimal effective dose [1, 5]: 300 mg/kg
- minimal effective dose [1, 6]: > 300 mg/kg
- minimal effective dose [2, 7]: > 300 mg/kg
- minimal effective dose [2, 8]: > 300 mg/kg
- NT (rotarod), minimum dose neurotoxic in half or more animals tested, 0.5 h (mice (rotarod test); male, CF#1, mouse, in vivo): 300^33 mg/kg
- response comment (adverse sign observed) (mice (rotarod test)): tremors
- MES, number of rats protected/number of rats tested, 0.25 h [4]: 1/4
- MES, number of rats protected/number of rats tested, 0.5 h [4]: 1/4
- MES, number of rats protected/number of rats tested, 1 h [4]: 1/4
- MES, number of rats protected/number of rats tested, 2 h [4]: 1/4
- MES, number of rats protected/number of rats tested, 4 h [4]: 1/4

Structure (SMILES): Cl.O=C(CN1CCN(c2ncccn2)CC1)Nc1cccc(C(F)(F)F)c1 [Compound 21, 2-(4-Pyrimidin-2-ylpiperazin-1-yl)-N-[3-(trifluoromethyl)phenyl]acetamide monohydrochloride]
- minimal effective dose [1, 5]: > 300 mg/kg
- minimal effective dose [1, 6]: > 300 mg/kg
- minimal effective dose [2, 7]: > 300 mg/kg
- minimal effective dose [2, 8]: > 300 mg/kg
- NT (rotarod), minimum dose neurotoxic in half or more animals tested, 0.5 h (mice (rotarod test); male, CF#1, mouse, in vivo): 300 mg/kg

Structure (SMILES): O=C(CN1CCN(c2ccccc2)CC1)Nc1cccc(C(F)(F)F)c1 [Compound 14, 2-(4-Phenylpiperazin-1-yl)-N-[3-(trifluoromethyl)phenyl]acetamide]
- minimal effective dose [1, 5]: > 300 mg/kg
- minimal effective dose [1, 6]: 100 mg/kg
- minimal effective dose [2, 7]: > 300 mg/kg
- minimal effective dose [2, 8]: > 300 mg/kg
- NT (rotarod), minimum dose neurotoxic in half or more animals tested, 0.5 h (mice (rotarod test); male, CF#1, mouse, in vivo): 300^Z mg/kg
- NT (rotarod), minimum dose neurotoxic in half or more animals tested, 4 h (mice (rotarod test); male, CF#1, mouse, in vivo, 4 h): 300 mg/kg
- dose showing neurotoxicity in the rotarod test (NT) (mice (rotarod test); male, CF#1, mouse, in vivo): 300 mg/kg
- response comment (adverse sign observed) (mice (rotarod test)): respiratory depression

Structure (SMILES): Cl.Cl.O=C(CN1CCN(Cc2ccccc2)CC1)Nc1cccc(Cl)c1 [Compound 11, 2-(4-Benzylpiperazin-1-yl)-N-(3-chlorophenyl)acetamide dihydrochloride]
- minimal effective dose [1, 5]: > 300 mg/kg
- minimal effective dose [1, 6]: > 300 mg/kg
- minimal effective dose [2, 7]: > 300 mg/kg
- minimal effective dose [2, 8]: > 300 mg/kg
- NT (rotarod), minimum dose neurotoxic in half or more animals tested, 0.5 h (mice (rotarod test); male, CF#1, mouse, in vivo): 300 mg/kg
- dose showing neurotoxicity in the rotarod test (NT) (mice (rotarod test); male, CF#1, mouse, in vivo): 300 mg/kg

Structure (SMILES): Cl.O=C(CN1CCN(c2cccc(Cl)c2Cl)CC1)Nc1cccc(Cl)c1 [Compound 6, N-(3-chlorophenyl)-2-[4-(2,3-dichlorophenyl)piperazin-1-yl]acetamide monohydrochloride]
- minimal effective dose [1, 5]: > 300 mg/kg
- minimal effective dose [1, 6]: > 300 mg/kg
- minimal effective dose [2, 7]: > 300 mg/kg
- minimal effective dose [2, 8]: > 300 mg/kg
